Where “and” joins values, the source holds several entries; their conditions need not be identical. Equal entries are not always repeated. Where two headings read alike, the source gives them in different places.
Experiments:
COLO-205 [1] = test: Two-dose antiproliferative screening, SRB assay, COLO-205; format: cell-based, human; conditions: triplicates; for Growth Inhibition (%) COLO-205 1 μM Average: 72 h; for inhibition at 1 µM / inhibition at 10 µM: Homo sapiens, COLO 205, 72 h; for inhibition at 1 µM: read-out: Growth Inhibition (%) COLO-205 1 μM Average; for inhibition at 10 µM: read-out: Growth Inhibition (%) COLO-205 10 μM Average
Experimental: (§1) MCF-7(breast adenocarcinoma), PC-3 (prostate cancer) and COLO-205 (colorectal cancer) were obtained from Nawah Scientific inc., (Mokatam, Cairo, Egypt). Cells were maintained in Dulbecco’s Modified Eagle’s media (DMEM media) supplemented with […] of streptomycin, 100 units/mL of penicillin and 10% of heat-inactivated fetal bovine serum in humidified, 5% (v/v) CO2 atmosphere at 37 °C.
(§2) Cell viability was assessed by the sulforhodamine B (SRB) assay. Aliquots of cell suspension (5 × 10^3 cells, 100 μL) were transferred into 96 well plates and incubated in complete media for 24 h. Cells were treated with another aliquot media (100 μL) containing compounds 3a–f, 4a–f, 6a–f, 7a–f, 9a–b at concentrations of 1 and 10 μM). After 72 h of drug exposure, cells were fixed by replacing media with trichloroacetic acid (TCA, 10%, 150 μL) and incubated at 4 °C for 1 h. The TCA solution was removed, and the cells were washed five times with distilled water. Aliquots of SRB solution (0.4%w/v, 70 μL) were added and incubated in a dark place at room temperature for 10 min. Plates were washed three times with 1% acetic acid and allowed to air dry overnight. Then, a solution of TRIS base and TRIS HCl (TRIS buffer, 10 mM, 150 μL) was added to dissolve protein bound SRB stain. The absorbance was measured at 540 nm using BMGLABTECH®–FLUOstar omega micro-plate reader (Ortenberg, Germany).

CK1 = test: Casein Kinase 1 (CK1) 33P-ATP assay; format: biochemical
Experimental: The active CK1, kinase assay buffer, substrate solution and kinase dilution buffer were thawed on ice (^33P-ATP assay Cocktail). In a precooled microcentrifuge tube, 10 μL of kinase solution, 5 μL of substrate solution and 5 μL of cold water (4 °C) were added, then a blank control was set up. Each reaction was initiated by adding 5 μL of ^33P-ATP assay cocktail then incubated for 15 min in a water bath (30 °C), then 20 μL of the reaction mixture were spotted onto an individually precut strip of phosphocellulose P81 paper and allowed to air dry followed by washing using 1% H2SO4 with constant gentle stirring. A radioactive control was set up then 5 μL of γ-^33P-ATP assay cocktail was spotted on P81 paper, the sample was allowed to air dry for 2 min then the radioactivity count was recorded.

COLO-205 [2] = test: IC50 against COLO-205, SRB assay; format: cell-based; conditions: Homo sapiens, 0.001–100 μM
Experimental: as §2
The same procedures used to screen two-dose anticancer activities were applied in determining IC50 values against COLO-205 using SRB assay. Cells were maintained at Roswell Park Memorial Institute media (RPMI media). The test was performed using 0.001–100 μM of compounds 4a (IC261), 4b, 4d, 4e, 6e and 6f. IC50 values were calculated using the equation for Boltzman sigmoidal concentration–response curve using the nonlinear regression fitting models by GraphPad, Prism version 5 (GraphPad Software Inc., La Jolla, CA, USA).

PC-3 = test: Two-dose antiproliferative screening, SRB assay, PC-3; format: cell-based; conditions: triplicates; for Growth Inhibition (%) PC-3 1 μM Average: 72 h; for inhibition at 1 µM / inhibition at 10 µM: Homo sapiens, PC-3, 72 h; for inhibition at 1 µM: read-out: Growth Inhibition (%) PC-3 1 μM Average; for inhibition at 10 µM: read-out: Growth Inhibition (%) PC-3 10 μM Average
Experimental: as §1, §2

EGFR = molecular target: T1, EGFR (Homo sapiens, UniProt P00533); test: EGFR kinase assay kit (Kinase-Glo MAX); format: biochemical; conditions: EGFR-TK kinase kit; read-out: EGFR Inhibition IC50 (converted)
T1 construct: enough purified recombinant EGFR enzyme, EGFR substrate, ATP, and kinase assay buffer; purchased Sigma Aldrich
T1 sequence (P00533 25-1210): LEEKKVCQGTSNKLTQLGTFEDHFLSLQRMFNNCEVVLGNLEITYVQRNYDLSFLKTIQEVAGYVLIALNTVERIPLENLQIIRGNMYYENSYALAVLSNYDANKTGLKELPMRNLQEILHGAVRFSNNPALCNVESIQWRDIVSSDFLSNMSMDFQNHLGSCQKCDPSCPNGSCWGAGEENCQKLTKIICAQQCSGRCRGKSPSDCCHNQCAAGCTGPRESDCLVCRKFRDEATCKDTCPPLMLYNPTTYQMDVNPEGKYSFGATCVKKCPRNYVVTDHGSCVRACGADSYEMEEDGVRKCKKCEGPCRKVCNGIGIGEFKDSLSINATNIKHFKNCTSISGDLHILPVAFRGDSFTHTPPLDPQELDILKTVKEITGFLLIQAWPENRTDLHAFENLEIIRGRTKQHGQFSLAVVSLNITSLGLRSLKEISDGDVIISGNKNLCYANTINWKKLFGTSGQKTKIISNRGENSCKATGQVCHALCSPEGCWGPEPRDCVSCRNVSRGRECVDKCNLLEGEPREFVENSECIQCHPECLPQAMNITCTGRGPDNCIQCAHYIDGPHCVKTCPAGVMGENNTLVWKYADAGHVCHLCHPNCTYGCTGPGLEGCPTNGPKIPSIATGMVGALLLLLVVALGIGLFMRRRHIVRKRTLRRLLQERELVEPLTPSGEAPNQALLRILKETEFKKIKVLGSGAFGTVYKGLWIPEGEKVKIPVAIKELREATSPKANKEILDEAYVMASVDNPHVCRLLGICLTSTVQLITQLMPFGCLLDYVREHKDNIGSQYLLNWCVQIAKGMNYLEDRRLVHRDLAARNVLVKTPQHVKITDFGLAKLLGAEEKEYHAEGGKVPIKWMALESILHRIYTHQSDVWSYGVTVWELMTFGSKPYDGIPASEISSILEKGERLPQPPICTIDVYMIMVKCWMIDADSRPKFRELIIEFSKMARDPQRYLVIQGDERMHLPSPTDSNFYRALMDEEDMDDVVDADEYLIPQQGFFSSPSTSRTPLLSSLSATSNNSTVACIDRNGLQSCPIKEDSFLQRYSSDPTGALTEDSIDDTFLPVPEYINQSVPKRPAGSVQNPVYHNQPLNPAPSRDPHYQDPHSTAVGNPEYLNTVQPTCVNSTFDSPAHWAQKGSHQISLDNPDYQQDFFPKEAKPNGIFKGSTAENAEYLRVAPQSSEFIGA
Experimental: The EGFR Kinase Assay Kit (Sigma Aldrich, St. Louis, […], USA) is designed to measure EGFR Kinase activity for screening and profiling applications using Kinase-Glo® MAX as a detection reagent. The EGFR Kinase Assay Kit (Sigma Aldrich, St. Louis, […], USA) comes in a convenient 96-well format, with enough purified recombinant EGFR enzyme, EGFR substrate, ATP, and kinase assay buffer for 100 enzyme reactions. The master mixture (25 μL per well) was prepared out of Kinase assay buffer (6 μL), ATP (500 μM, 1 μL), PTK substrate (50×, 1 μL) and water (17 μL) and added to each well. Inhibitor solution was made by dissolving 4b in a liquid labelled” inhibitor buffer”. An inhibitor solution (5 μL) was then added to each well, labelled as “Test Inhibitor”. For “Positive Control” and “Blank”, add 5 μL inhibitor buffer). EGFR was thawed on ice. Its tube was spun briefly to recover the full content of the tube. The enzyme was diluted with 1× Kinase assay buffer enzyme to 1 ng/μL. The reaction was initiated by adding 20 μL of diluted EGFR enzyme to the wells designated “Positive Control” and “Test Inhibitor Control”. The plate was incubated at 30 °C for 40 min. After the 40-min reaction, the Kinase-Glo Max (50 μL) reagent was added to each well. The plate was covered with aluminum foil, incubated at room temperature for 15 min and the luminescence was measured using the microplate reader.

Row | Compound | Growth Inhibition (%) COLO-205 1 μM Average (COLO-205 [1]) | inhibition at 1 µM (COLO-205 [1]) | inhibition at 10 µM (COLO-205 [1]) | CK 1 inhibition IC50 (as printed in μM in discussion) (CK1) | Casein Kinase I Inhibition IC50 (CK1) | Casein Kinase I Inhibition IC50 (CK1; IC261) | IC50 (COLO-205 [2]) | Growth Inhibition (%) PC-3 1 μM Average (PC-3) | inhibition at 1 µM (PC-3) | inhibition at 10 µM (PC-3) | IC50 (EGFR)
1 | COc1cc(OC)c(/C=C2/C(=O)Nc3ccccc32)c(OC)c1 [Compound 4a, (E)-3-(2,4,6-trimethoxybenzylidene)indolin-2-one, reference compound] | 63.60% | 64% | 77.5% | 2.39 µM | 2.39 µg/mL | 2.39 (4a, IC261) μg/mL | 0.2 µM | 59.19% | 60% | 67.9% | 0.321 µM and 0.34 µM
2 | COc1cc(OC)c(/C=C2/C(=O)Nc3cc(Cl)ccc32)c(OC)c1 [Compound 4b, (E)-6-chloro-3-(2,4,6-trimethoxybenzylidene)indolin-2-one] | 73.32% | 74% | 82.5% |  | 1.92 µg/mL |  | 0.2 µM | 64.05% | 65% | 71.7% | 0.549 µM
